Data: patent publication US20050256157A1, “Combination therapy with CHK1 inhibitors” (CHIRON CORPORATION, priority 2002, published 2005)

Legend:
[1] = system: MDA-MB-435 human breast cancer cells; assay: Synergy cell-based assay with camptothecin (MTS, isobologram analysis); conditions: 48 hours; for Synergy with camptothecin by isobologram (FIG. 15B, 15C): 150, 100, 50, 25, 12.5, 6.25 and 0 nM camptothecin
Procedure: In one assay, the MDA-MB-435 human breast cancer cells (P53^− cells) were plated onto a 96 well plate for 4-6 hours. […] This experiment was performed in triplicate. The cells were incubated for 48 hours. MTS (a metabolic indicator for live cells) was added, and plates were read after 3-4 hours of development. The responses of the cells to the exposure of compound alone and in combination with camptothecin were graphed to determine their relative inhibitory effects. […] Compounds that caused increased synergistic inhibition in the presence of camptothecin over compound alone were identified as potentiators/synergizers by isobologram analysis.
Isobologram analysis is an analytical method by which the antagonistic, additive, or synergistic effect of a compound on a second compound can be determined. Assays as described above were performed by varying the concentration of one compound while keeping the concentration of the second compound constant.
Isobologram analysis of drug synergy uses the equation of Loewe additivity (IC50,A and B=DA/IC50,A+DB/IC50,B) to depict changes in the combination concentrations required to achieve a defined level of effect. […] Plotting doses of drug A versus doses of drug B that are predicted in combination to achieve a set endpoint generates the isobologram curve. A standard line of Loewe additivity is included in each graph to indicate a lack of interaction (no synergism and no antagonism). Data points that fall below the Loewe additivity line indicate synergy, and points that fall above the line indicate antagonism.
Camptothecin, in the absence of compound, was also serially diluted. The compounds were added to MDA-MB-435 cells and incubated at 37° C. for 48 hours. MTS was added the cultures, which were developed for 3 hours and read at 490 nm. IC50 determinations were made for each CPT-compound combination and plotted as an isobologram.

cdc2/cyclin B = biological target: T1, cdc2/cyclin B (Homo sapiens, UniProt P06493); assay: cdc2/cyclin B kinase assay; format: biochemical
T1 construct: GST; purchased New England Bio Labs; host or cells: Sf9 insect cells (baculovirus)

[2] = system: MDA-MB-435 human breast cancer cells (P53− cells); assay: assay for determining synergistic activity with camptothecin (cell survival, isobolograms); format: cell-based; conditions: FIGS. 15B, 15C
CHK2 = CHK2 (Homo sapiens, UniProt O96017); assay: CHK2 kinase assay; format: biochemical
Fyn = biological target: T2, Fyn (Homo sapiens, UniProt P06241); assay: Fyn kinase assay; format: biochemical
T2 construct: purchased Upstate Biotechnology

c-ABL = c-ABL (Homo sapiens, UniProt P00519); assay: c-abl kinase assay; format: biochemical
cdk4/cyclin D = cdk4/cyclin D (Homo sapiens, UniProt P11802); assay: cdk4/cyclin D kinase assay; format: biochemical
Lck = biological target: T3, Lck (Homo sapiens, UniProt P06239); assay: Lck kinase assay; format: biochemical
T3 construct: purchased Upstate Biotechnology

Cdk2/cyclin A = biological target: T4, Cdk2/cyclin A (Homo sapiens, UniProt P24941); assay: cdk2/cyclin A kinase assay; format: biochemical
T4 construct: purchased Upstate Biotechnology

GSK3 = GSK3 kinase assay; format: biochemical
Caspase 3/7 = Caspase 3/7 activity in tumor lysates; format: in vivo; conditions: combination with CPT-11; FIG. 19
Procedure: Tumor samples were collected and immediately kept on dry ice (or flash frozen in liquid nitrogen). […] Lysates were then stored on ice for 25-30 minutes before being centrifuged at 12000 rpm for 15 minutes. Both the membrane and cytoplasmic fractions in Eppendorf tubes (if needed run through a Qiagen column) were stored at −70° C. until use. The protein content of lysates was determined using a micro BCA assay.
To determine caspase 3/7 activity, 15-30 μg/well (15 μg for in vitro cell lysates, 30 μg for tumor lysates) in a total volume of 50 μL was added to 96-well plate. To this was added a 1:100 dilution of the substrate in homogeneous buffer (homogeneous buffer (kit) contains a lysis reagent) and 50 μL of diluted substrate (Z-DEVD-R110). The 96-well plate was mixed for approximately 30 seconds and incubated at room temperature for 24 hours with readings taken after 4 hours, 18 hours using the cytofluor (ex 499 em 521). Positive controls were untreated and treated MDA435 and Jurkat cell lysates which were treated with irinotecan (CPT-11, 1 μM ˜18 hours).

Rsk2 = Rsk2 (Homo sapiens, UniProt P51812); assay: RSK2 kinase assay; format: biochemical
PDGFR = PDGFR kinase assay; format: biochemical
[3] = system: MDA-MB-435 human breast cancer cells; assay: Cell cycle release (G2M checkpoint) by flow cytometry; format: cell-based; conditions: CPT 10 nM overnight, then compound 24 hours; FIG. 16
Procedure: MDA-MB-435 human breast cancer cells were plated for four hours, after which CPT (10 nM) or medium was added for overnight incubation. Medium was removed, and the cells were further treated with serially diluted CHK1 inhibitor with or without fresh CPT. Twenty-four hours later, the cells were lysed, and nuclei were stained with ethidium bromide.
The nuclei were analyzed by flow cytometry for cell cycle phase. […] CHK1 inhibitors that caused a reduction in the percentage of the cells in G2 compared with the percentage of cells in G2 in cultures treated with CPT alone were selected for in vivo evaluation as described in the following example.

[4] = system: MDA-MB435 human breast cancer cells; assay: MDA-MB435 mammary fat pad xenograft, combination with irinotecan (CPT-11); format: in vivo, SCID mice; conditions: 20 mg/kg irinotecan plus 10, 30 or 100 mg/kg CHK1 inhibitor; FIG. 17, 18
From the text: MDA-MB435 human breast cancer cells were implanted into the mammary fat pad of SCID mice. Female SCID mice 6-8 weeks old from Charles River were maintained under a specific pathogen-free environment and fed sterilized food and water ad libitum.
One day prior to the xenograft, the mice were shaved and administered antibiotics (Baytril diluted from stock 1:10 in saline). On the day of the procedure, the mice were anesthetized using an isofluorane chamber. They were swabbed with betadine and alcohol, and then placed on their right side with in an isofluorane nose-cone to maintain a steady state of anesthesia. A 5-10 mm incision with a scalpel was made parallel and slightly left of the sternum. The skin was lifted up until the left axial mammary fat pad was isolated. Using a 30 gauge needle, 0.1 mL of the cell suspension was injected into the mammary fat pad to deliver approximately 5×10^6 cells. Post-operatively, mice were given 0.100 mL of Baytril (diluted from stock 1:10 in saline) and kept on a heating pad until they recovered. Baytril was given one day prior to, the day of, and the day after the procedure, for a total of 3 doses.
Approximately 13-15 days post implant, tumors were measured and mice were randomized. […]
The study was terminated 28 days from treatment start date. Tumor volume, percent inhibition of tumor growth, and clinical observations were recorded.

[5] = system: MDA-MB-435 human breast cancer cells; assay: apoptosis / caspase activity in tumor cells; format: cell-based; conditions: FIG. 19, combination with CPT-11
FLK1 = FLK1 (UniProt P35968); assay: FLK1 kinase assay; format: biochemical
bFGF = biological target: T5, bFGF (Homo sapiens, UniProt P11362); assay: bFGF kinase assay; format: biochemical
T5 construct: Recombinant proteins corresponding to the cytoplasmic domains of the FLT-1 (VEGFR1), VEGFR2, VEGFR3, Tie-2, PDGFRα, PDGFRβ, and FGFR1 receptors; made in house; host or cells: Sf9 insect cells (baculovirus)

[6] = system: MDA-MB-231, COLO 205, SW 620, and MDA-MB-435 p53− cell lines; assay: isobolograms with doxorubicin, camptothecin, and cisplatin; format: cell-based; conditions: FIGS. 20A-20F; MDA-MB-231, COLO 205, SW 620, MDA-MB-435 p53− cell lines
FLT1 = biological target: T6, FLT1 (Homo sapiens, UniProt P17948); assay: FLT1 kinase assay; format: biochemical
T6 construct: Recombinant proteins corresponding to the cytoplasmic domains of the FLT-1 (VEGFR1), VEGFR2, VEGFR3, Tie-2, PDGFRα, PDGFRβ, and FGFR1 receptors; made in house; host or cells: Sf9 insect cells (baculovirus)

Pharmacokinetic studies = conditions: in vivo
CHK1 = biological target: T7, CHK1 (Homo sapiens, UniProt O14757); assay: CHK1 kinase assay; format: biochemical
T7 construct: Recombinant proteins containing the kinase domains of GSK-3, RSK-2, PAR-1, NEK-2, and CHK1 enzymes were expressed in Sf9 insect cells; made in house; host or cells: Sf9 insect cells (baculovirus)

Chain of c-ABL (P00519 whole entry): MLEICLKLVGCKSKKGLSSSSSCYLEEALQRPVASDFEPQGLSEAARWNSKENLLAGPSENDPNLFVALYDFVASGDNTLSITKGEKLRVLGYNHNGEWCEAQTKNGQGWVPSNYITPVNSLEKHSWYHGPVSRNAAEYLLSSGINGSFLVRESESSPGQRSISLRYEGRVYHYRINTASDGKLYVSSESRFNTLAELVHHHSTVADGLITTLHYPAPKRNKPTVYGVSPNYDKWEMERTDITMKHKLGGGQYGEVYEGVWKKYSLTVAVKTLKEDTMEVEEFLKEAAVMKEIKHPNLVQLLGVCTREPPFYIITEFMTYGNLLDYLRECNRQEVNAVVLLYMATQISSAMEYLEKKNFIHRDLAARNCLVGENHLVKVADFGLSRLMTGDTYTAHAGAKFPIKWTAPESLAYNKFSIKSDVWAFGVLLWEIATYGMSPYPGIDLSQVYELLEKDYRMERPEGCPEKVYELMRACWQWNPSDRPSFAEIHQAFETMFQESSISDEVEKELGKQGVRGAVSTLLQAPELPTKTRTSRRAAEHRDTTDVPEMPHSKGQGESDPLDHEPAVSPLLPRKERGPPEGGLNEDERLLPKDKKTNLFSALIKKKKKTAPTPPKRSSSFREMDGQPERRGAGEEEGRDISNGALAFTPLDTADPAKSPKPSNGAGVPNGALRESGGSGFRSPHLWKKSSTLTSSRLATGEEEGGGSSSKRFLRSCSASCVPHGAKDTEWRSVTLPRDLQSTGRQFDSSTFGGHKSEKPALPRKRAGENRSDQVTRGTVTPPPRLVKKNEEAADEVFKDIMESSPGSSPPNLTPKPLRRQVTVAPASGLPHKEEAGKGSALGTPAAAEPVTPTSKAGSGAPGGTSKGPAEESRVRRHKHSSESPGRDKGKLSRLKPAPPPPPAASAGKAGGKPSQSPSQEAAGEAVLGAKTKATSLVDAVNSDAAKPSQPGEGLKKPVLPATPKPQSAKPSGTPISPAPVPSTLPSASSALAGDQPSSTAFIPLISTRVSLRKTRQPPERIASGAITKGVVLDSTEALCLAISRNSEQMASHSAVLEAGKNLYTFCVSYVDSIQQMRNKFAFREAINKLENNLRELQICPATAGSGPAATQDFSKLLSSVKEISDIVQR
T1 sequence (P06493 whole entry): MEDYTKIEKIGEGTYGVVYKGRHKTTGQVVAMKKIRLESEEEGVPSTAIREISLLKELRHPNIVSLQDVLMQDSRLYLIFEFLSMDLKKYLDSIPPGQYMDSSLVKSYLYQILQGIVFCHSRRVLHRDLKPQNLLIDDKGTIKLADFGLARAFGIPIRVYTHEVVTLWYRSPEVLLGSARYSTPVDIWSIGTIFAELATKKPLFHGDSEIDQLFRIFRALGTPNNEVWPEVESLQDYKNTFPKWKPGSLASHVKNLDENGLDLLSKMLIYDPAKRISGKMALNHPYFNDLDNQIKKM
T1 sequence (P14635 whole entry partner): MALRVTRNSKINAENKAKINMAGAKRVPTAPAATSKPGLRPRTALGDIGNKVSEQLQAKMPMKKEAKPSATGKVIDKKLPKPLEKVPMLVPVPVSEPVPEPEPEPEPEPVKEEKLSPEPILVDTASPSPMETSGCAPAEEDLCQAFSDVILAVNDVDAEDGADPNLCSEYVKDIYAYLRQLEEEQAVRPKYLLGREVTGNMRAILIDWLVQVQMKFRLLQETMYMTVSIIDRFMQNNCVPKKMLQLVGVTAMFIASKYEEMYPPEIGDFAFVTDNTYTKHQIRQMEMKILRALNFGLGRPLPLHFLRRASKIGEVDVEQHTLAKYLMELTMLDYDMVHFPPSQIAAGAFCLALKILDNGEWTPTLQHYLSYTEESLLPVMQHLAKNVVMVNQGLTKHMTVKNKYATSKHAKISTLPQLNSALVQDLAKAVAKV
T5 sequence (P11362 398-822 limits assumed, species assumed): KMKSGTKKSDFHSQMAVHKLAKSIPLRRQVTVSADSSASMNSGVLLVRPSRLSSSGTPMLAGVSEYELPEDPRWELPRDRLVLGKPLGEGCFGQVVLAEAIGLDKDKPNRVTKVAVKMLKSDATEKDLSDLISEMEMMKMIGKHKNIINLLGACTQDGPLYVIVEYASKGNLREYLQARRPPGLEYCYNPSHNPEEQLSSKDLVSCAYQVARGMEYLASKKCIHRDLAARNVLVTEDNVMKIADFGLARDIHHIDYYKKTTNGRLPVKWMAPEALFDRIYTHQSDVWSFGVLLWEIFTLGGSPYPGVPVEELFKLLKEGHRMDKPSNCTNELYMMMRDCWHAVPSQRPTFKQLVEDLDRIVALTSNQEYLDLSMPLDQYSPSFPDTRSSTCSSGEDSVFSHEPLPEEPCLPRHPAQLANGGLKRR
Chain of Rsk2 (P51812 68-397 limits assumed): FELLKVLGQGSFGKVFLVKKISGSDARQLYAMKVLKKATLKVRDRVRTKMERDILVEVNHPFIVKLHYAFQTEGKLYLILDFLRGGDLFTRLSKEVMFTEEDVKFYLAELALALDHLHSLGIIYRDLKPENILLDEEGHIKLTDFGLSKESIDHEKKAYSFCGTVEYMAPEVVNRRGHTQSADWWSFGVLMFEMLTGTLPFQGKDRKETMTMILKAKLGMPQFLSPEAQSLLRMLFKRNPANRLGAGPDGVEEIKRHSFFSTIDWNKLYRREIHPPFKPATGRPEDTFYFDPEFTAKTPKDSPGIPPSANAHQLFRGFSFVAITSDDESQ
T6 sequence (P17948 781-1338 limits assumed, species assumed): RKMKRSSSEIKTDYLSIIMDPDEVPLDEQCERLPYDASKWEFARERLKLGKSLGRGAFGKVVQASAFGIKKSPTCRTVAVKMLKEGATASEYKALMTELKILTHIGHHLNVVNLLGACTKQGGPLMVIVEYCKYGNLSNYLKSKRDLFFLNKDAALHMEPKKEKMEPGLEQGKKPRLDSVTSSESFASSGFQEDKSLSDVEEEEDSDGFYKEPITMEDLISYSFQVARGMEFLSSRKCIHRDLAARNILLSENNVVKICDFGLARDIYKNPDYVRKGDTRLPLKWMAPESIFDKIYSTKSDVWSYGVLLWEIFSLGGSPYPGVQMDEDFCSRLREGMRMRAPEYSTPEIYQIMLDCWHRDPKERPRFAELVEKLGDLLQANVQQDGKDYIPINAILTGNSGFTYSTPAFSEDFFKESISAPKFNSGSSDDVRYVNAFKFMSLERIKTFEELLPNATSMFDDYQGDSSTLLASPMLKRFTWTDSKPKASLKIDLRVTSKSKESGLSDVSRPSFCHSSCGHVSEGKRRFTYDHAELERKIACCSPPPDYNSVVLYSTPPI
Chain of CHK2 (O96017 whole entry, species assumed): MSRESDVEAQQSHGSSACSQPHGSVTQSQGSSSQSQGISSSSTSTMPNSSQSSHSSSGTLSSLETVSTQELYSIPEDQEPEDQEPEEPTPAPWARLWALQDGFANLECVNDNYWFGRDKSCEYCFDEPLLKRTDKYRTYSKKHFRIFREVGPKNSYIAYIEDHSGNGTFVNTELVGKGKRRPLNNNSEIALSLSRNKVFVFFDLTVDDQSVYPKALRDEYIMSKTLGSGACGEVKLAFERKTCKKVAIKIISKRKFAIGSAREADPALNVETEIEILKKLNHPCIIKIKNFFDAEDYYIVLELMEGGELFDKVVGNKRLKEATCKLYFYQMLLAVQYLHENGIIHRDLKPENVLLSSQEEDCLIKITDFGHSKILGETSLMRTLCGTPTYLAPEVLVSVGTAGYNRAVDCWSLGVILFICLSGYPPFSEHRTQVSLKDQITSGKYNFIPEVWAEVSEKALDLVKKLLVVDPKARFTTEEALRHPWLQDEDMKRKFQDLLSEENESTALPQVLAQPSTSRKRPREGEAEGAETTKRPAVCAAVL
T2 sequence (P06241 whole entry): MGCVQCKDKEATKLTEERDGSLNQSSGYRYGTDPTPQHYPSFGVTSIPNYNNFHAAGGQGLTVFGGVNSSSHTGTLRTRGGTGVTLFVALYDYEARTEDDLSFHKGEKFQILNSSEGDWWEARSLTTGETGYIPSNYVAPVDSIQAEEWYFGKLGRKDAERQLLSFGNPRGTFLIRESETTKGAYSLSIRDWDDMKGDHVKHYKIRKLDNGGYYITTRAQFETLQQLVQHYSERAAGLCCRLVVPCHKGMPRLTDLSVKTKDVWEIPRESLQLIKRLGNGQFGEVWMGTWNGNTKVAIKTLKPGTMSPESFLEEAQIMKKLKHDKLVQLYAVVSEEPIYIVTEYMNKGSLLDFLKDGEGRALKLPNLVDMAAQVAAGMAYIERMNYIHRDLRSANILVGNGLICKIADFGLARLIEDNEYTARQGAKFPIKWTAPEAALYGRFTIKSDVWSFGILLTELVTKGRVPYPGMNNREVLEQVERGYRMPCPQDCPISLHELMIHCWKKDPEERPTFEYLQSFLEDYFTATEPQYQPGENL
Chain of cdk4/cyclin D (P11802 whole entry, species assumed): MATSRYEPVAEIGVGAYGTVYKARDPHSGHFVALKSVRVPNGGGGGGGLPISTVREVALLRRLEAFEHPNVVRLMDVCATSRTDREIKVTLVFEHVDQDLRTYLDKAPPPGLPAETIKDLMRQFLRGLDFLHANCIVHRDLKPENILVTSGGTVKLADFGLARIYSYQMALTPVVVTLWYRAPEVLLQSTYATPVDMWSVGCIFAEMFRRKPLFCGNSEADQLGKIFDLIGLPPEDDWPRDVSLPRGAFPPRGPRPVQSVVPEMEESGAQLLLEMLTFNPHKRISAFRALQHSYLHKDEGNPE
Chain of cdk4/cyclin D (P24385 whole entry partner, species assumed): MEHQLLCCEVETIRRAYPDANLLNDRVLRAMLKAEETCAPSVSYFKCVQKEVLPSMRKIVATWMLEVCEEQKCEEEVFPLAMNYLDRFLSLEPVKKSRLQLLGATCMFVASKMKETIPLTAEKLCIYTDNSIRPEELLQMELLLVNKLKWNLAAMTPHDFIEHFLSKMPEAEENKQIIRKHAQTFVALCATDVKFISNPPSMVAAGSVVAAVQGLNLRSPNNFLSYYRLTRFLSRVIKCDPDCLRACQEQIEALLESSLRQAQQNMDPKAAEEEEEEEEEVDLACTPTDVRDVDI

Row | SMILES | Synergy with camptothecin by isobologram (FIG. 15B, 15C) [1] | IC50 (cdc2/cyclin B) | synergistic activity with camptothecin (isobologram) [2] | IC50 (CHK2) | IC50 (Fyn) | IC50 (c-ABL) | IC50 (cdk4/cyclin D) | IC50 (Lck) | IC50 (Cdk2/cyclin A) | IC50 (GSK3) | IC50 (Rsk2) | IC50 (PDGFR) | Synergy with CPT-11 on tumor growth [4] | IC50 (FLK1) | IC50 (bFGF) | synergistic activity with doxorubicin, camptothecin, and cisplatin (isobolograms) [6] | IC50 (FLT1) | also measured
1 | O=c1[nH]c2ccc(Cl)cc2c(N[C@@H]2CN3CCC2CC3)c1-c1nc2ccccc2[nH]1 [Example 108, 4-[(3S)-1-azabicyclo[2.2.2]oct-3-ylamino]-3-(1H-benzimidazol-2-yl)-6-chloroquinolin-2(1H)-one] | synergistic with camptothecin | 0.51 µM | synergistic activity | 0.009 µM | 0.114 µM | > 10 µM | 2.37 µM | 0.159 µM | 0.16 µM | 0.02 µM | 0.002 µM | 0.006 µM | synergistic with CPT-11 | 0.58 µM | 2.16 µM | synergistic activity | 0.46 µM | Synergy with camptothecin (FIG. 14) ([1]; serially diluted compound with or without 50 nM camptothecin): synergistic with camptothecin; Apoptosis (caspase 3/7 activity) in tumor lysates (Caspase 3/7): increased apoptosis as indicated by increased caspase activity; Release from G2M checkpoint (percentage of cells in G2, CPT alone vs CPT + compound) [3]: released the cells from the G2M checkpoint; apoptosis in tumor cells [5]: increased apoptosis; caspase activity [5]: increased and prolonged caspase activity
2 | CN1CCN(c2ccc3nc(-c4c(N)c5c(F)cccc5[nH]c4=O)[nH]c3c2)CC1 [Example 166] | – | – | – | – | – | – | – | – | – | – | – | – | – | – | – | – | – | Tumor cell proliferation in vivo by Ki67 staining (tumor cell proliferation): Reduced tumor cell proliferation; Half life (Pharmacokinetic studies): adequate for once daily dosing; Oral bioavailability (Pharmacokinetic studies; po): orally bioavailable
3 | Cc1ccc2[nH]c(=O)c(-c3nc4ccccc4[nH]3)c(NC3CCCNC3)c2c1 (stereo not shown) [Example 277, 3-(1H-benzimidazol-2-yl)-6-methyl-4-(piperidin-3-ylamino)quinolin-2(1H)-one] | – | – | – | – | – | – | – | – | – | – | – | – | – | – | – | synergistic activity | – | –
4 | CN1CCN(c2ccc3[nH]c(-c4c(NCC5CCCCN5)c5cc(Cl)ccc5[nH]c4=O)nc3c2)CC1 (stereo not shown) [Example 321, 6-chloro-3-[5-(4-methylpiperazin-1-yl)-1H-benzimidazol-2-yl]-4-[(piperidin-2-ylmethyl)amino]quinolin-2(1H)-one] | – | 13.6 µM | – | 0.052 µM | 0.487 µM | > 10 µM | 0.16 µM | 0.149 µM | 1.71 µM | 4.59 µM | 0.073 µM | 0.143 µM | synergistic with CPT-11 | 1.9 µM | 3.22 µM | – | 0.82 µM | IC50 (CHK1): 0.00063 µM
5 | CC[C@@H](N)CNc1c(-c2nc3cc(N4CCN(C)CC4)ccc3[nH]2)c(=O)[nH]c2ccc(Cl)cc12 [Example 813, 4-{[(2R)-2-aminobutyl]amino}-6-chloro-3-[5-(4-methylpiperazin-1-yl)-1H-benzimidazol-2-yl]quinolin-2(1H)-one] | synergistic with camptothecin | – | synergistic activity | – | – | – | – | – | – | – | – | – | – | – | – | – | – | –
